Results from PubChem BioAssay (NCI).
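All cell lines were grown in 96-well plates and treated with compound for 48 hours. At the GI50, growth is halved. At the TGI there is no net growth.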

Tests used:
Assay in all cases: growth of human tumour cells (NCI), 48 h
[1] = test system: 786-0 renal
[2] = test system: A498 renal
[3] = test system: A549 NSCLC
[4] = test system: ACHN renal
[5] = test system: BT-549 breast
[6] = test system: CAKI-1 renal
[7] = test system: CCRF-CEM leukemia
[8] = test system: COLO 205 colon
[9] = test system: DU-145 prostate
[10] = test system: EKVX NSCLC
[11] = test system: HCT-116 colon
[12] = test system: HCT-15 colon
[13] = test system: HL-60(TB) leukemia
[14] = test system: HOP-62 NSCLC
[15] = test system: HOP-92 NSCLC
[16] = test system: HS 578T breast
[17] = test system: HT29 colon
[18] = test system: IGROV1 ovarian
[19] = test system: K-562 leukemia
[20] = test system: KM12 colon
[21] = test system: LOX IMVI melanoma
[22] = test system: M14 melanoma
[23] = test system: MALME-3M melanoma
[24] = test system: MCF7 breast
[25] = test system: MDA-MB-231 breast
[26] = test system: MDA-MB-435
[27] = test system: MDA-N
[28] = test system: MOLT-4 leukemia
[29] = test system: NCI-H23 lung
[30] = test system: NCI-H460 lung
[31] = test system: NCI-H522 lung
[32] = test system: NCI/ADR-RES ovarian
[33] = test system: OVCAR-3 ovarian
[34] = test system: OVCAR-4 ovarian
[35] = test system: OVCAR-5 ovarian
[36] = test system: OVCAR-8 ovarian
[37] = test system: PC-3 prostate
[38] = test system: RPMI-8226 leukemia
[39] = test system: RXF 393 renal
[40] = test system: SF-268 CNS
[41] = test system: SF-295 CNS
[42] = test system: SF-539 CNS
[43] = test system: SK-MEL-2 melanoma
[44] = test system: SK-MEL-28 melanoma
[45] = test system: SK-MEL-5 melanoma
[46] = test system: SK-OV-3 ovarian
[47] = test system: SN12C renal
[48] = test system: SNB-19 CNS
[49] = test system: SNB-75 CNS
[50] = test system: SR leukemia
[51] = test system: SW-620 colon
[52] = test system: T-47D breast
[53] = test system: TK-10 renal
[54] = test system: U251 CNS
[55] = test system: UACC-257 melanoma
[56] = test system: UACC-62 melanoma
[57] = test system: UO-31 renal

Q: For `C/C(=N\[N+](C)(C)C)c1ccc(C)c(C)c1`, which GI50 [1] is on record?
A: > 100 µM

Q: What about the TGI [1] of the same compound?
A: > 100 µM

Q: What about the TGI [2] of the same compound?
A: > 100 µM

Q: What about the TGI [3] of the same compound?
A: > 100 µM

Q: What about the GI50 [4] of the same compound?
A: > 100 µM

Q: What about the TGI [4] of the same compound?
A: > 100 µM

Q: What about the TGI [5] of the same compound?
A: > 100 µM

Q: And the GI50 [6]?
A: > 100 µM

Q: And the TGI [6]?
A: > 100 µM

Q: And the TGI [7]?
A: > 100 µM

Q: And the TGI [8]?
A: 38.3 µM

Q: And the TGI [9]?
A: > 100 µM

Q: What about the TGI [10] of the same compound?
A: > 100 µM

Q: And the TGI [11]?
A: > 100 µM

Q: What about the GI50 [12] of the same compound?
A: > 100 µM

Q: And the TGI [12]?
A: > 100 µM

Q: What about the TGI [13] of the same compound?
A: > 100 µM

Q: And the GI50 [14]?
A: > 100 µM

Q: What about the TGI [14] of the same compound?
A: > 100 µM

Q: And the GI50 [15]?
A: > 100 µM

Q: What about the TGI [15] of the same compound?
A: > 100 µM

Q: And the GI50 [16]?
A: > 100 µM

Q: What about the TGI [16] of the same compound?
A: > 100 µM

Q: What about the TGI [17] of the same compound?
A: > 100 µM

Q: And the TGI [18]?
A: > 100 µM

Q: What about the TGI [19] of the same compound?
A: > 100 µM

Q: And the TGI [20]?
A: > 100 µM

Q: What about the GI50 [21] of the same compound?
A: > 100 µM

Q: What about the TGI [21] of the same compound?
A: > 100 µM

Q: And the GI50 [22]?
A: > 100 µM

Q: What about the TGI [22] of the same compound?
A: > 100 µM

Q: What about the GI50 [23] of the same compound?
A: > 100 µM

Q: And the TGI [23]?
A: > 100 µM

Q: What about the GI50 [24] of the same compound?
A: > 100 µM

Q: What about the TGI [24] of the same compound?
A: > 100 µM

Q: And the GI50 [25]?
A: > 100 µM

Q: And the TGI [25]?
A: > 100 µM

Q: What about the TGI [26] of the same compound?
A: > 100 µM

Q: And the TGI [27]?
A: > 100 µM

Q: What about the GI50 [28] of the same compound?
A: > 100 µM

Q: And the TGI [28]?
A: > 100 µM

Q: What about the TGI [29] of the same compound?
A: > 100 µM

Q: What about the TGI [30] of the same compound?
A: > 100 µM

Q: What about the TGI [31] of the same compound?
A: > 100 µM

Q: And the GI50 [32]?
A: > 100 µM

Q: What about the TGI [32] of the same compound?
A: > 100 µM

Q: What about the TGI [33] of the same compound?
A: > 100 µM

Q: What about the TGI [34] of the same compound?
A: > 100 µM

Q: What about the TGI [35] of the same compound?
A: > 100 µM

Q: What about the TGI [36] of the same compound?
A: > 100 µM

Q: And the TGI [37]?
A: > 100 µM

Q: What about the TGI [38] of the same compound?
A: > 100 µM

Q: What about the TGI [39] of the same compound?
A: > 100 µM

Q: What about the GI50 [40] of the same compound?
A: > 100 µM

Q: And the TGI [40]?
A: > 100 µM

Q: What about the TGI [41] of the same compound?
A: > 100 µM

Q: And the GI50 [42]?
A: > 100 µM

Q: What about the TGI [42] of the same compound?
A: > 100 µM

Q: And the TGI [43]?
A: > 100 µM

Q: And the GI50 [44]?
A: > 100 µM

Q: What about the TGI [44] of the same compound?
A: > 100 µM

Q: And the TGI [45]?
A: > 100 µM

Q: What about the TGI [46] of the same compound?
A: > 100 µM

Q: What about the TGI [47] of the same compound?
A: 69.7 µM

Q: What about the TGI [48] of the same compound?
A: > 100 µM

Q: And the TGI [49]?
A: > 100 µM

Q: And the TGI [50]?
A: > 100 µM

Q: What about the TGI [51] of the same compound?
A: > 100 µM

Q: What about the TGI [52] of the same compound?
A: > 100 µM

Q: And the TGI [53]?
A: > 100 µM

Q: And the TGI [54]?
A: > 100 µM

Q: What about the TGI [55] of the same compound?
A: 26.7 µM

Q: What about the TGI [56] of the same compound?
A: > 100 µM

Q: What about the TGI [57] of the same compound?
A: > 100 µM
